According to patent publication US10150780B2, “Spirocyclic heterocycle compounds useful as HIV integrase inhibitors” (Merck Sharp & Dohme Corp., priority 2014, dated 2018):
Like-named read-outs stand apart in the source and are kept apart here.

Test system: HIV-1 (NL4-3 strain)
Assay: Assay for Inhibition of HIV Replication (VIKING), infected MT4-GFP cells
Format: cell-based
Conditions: infected cells at 48 h / 24 h
Experimental: MT4-GFP cells (250,000 cells/ml) were bulk-infected with HIV-1 (NL4-3 strain) at low multiplicity of infection (MOI) in RPMI+10% FBS for 24 hours. Cells were then washed once in RPMI+10% FBS and resuspended RPMI+0% or +100% normal human serum (NHS). Test compounds were serial-diluted in DMSO on ECHO. The infected MT4-GFP cells were added to a 384-well poly-D-lysine coated black plate with clear bottom in which the diluted test compounds were placed. The cells were seeded at 8,000 cells per well and the final DMSO concentration was 0.4%. The infected cells (Green GFP cells) were quantified at both 24 and 48 hours post incubation using Acumen eX3. Viral reproductive ratio (R0) was determined using the number of infected cells at 48 hours divided by the number of infected cells at 24 hours. Percent viral growth inhibition was calculated by [1−(R−Rtripledrug)/(RDMSO−Rtripledrug)]*100.

[1] = Human immunodeficiency virus 1, NL43, 48 h, MT4-GFP cells infected with HIV-1 NL4-3, RPMI + 0% normal human serum, read-out: VIKING IP50 (nM) with 0% NHS
[2] = MT4-GFP cells infected with HIV-1 NL4-3, RPMI + 100% normal human serum, read-out: VIKING IP50 (nM) with 100% NHS
[3] = MT4-GFP cells infected with HIV-1 NL4-3, RPMI + 0% normal human serum, read-out: VIKING IP50 (nM) with 0% NHS
[4] = Human immunodeficiency virus 1, NL43, MT4-GFP cells infected with HIV-1 NL4-3, RPMI + 100% normal human serum, read-out: VIKING IP50 (nM) with 100% NHS

Row | Compound | IC50 [1] [nM] | IC50 [2] [nM] | IC50 [3] [nM] | IC50 [4] [nM]
1 | COC1N(N(C)C)C(=O)c2c(O)c(=O)c(C(=O)NCc3ccc(F)cc3F)cn2C12CC2 (single isomer, unassigned) [Compound 1] | 1.9 | > 8000 | – | –
2 | O=C(NCc1cccc(Cl)c1F)c1cn2c(c(O)c1=O)C(=O)N1CCOC1C21CC1 (single isomer, unassigned) [Compound 11] | – | > 8000 | 0.4 | –
3 | O=C(NCc1ccc(F)cc1F)c1cn2c(c(O)c1=O)C(=O)N1CCCOC1C21CC1 (single isomer, unassigned) [Compound 3] | 0.6 | 3370 | – | –
4 | O=C(NCc1cccc(Cl)c1F)c1cn2c(c(O)c1=O)C(=O)N1CCCOC1C21CC1 (single isomer, unassigned) [Compound 5] | 0.8 | > 8000 | – | –
5 | CN(C)N1CC2(COC2)n2cc(C(=O)NCc3ccc(F)cc3F)c(=O)c(O)c2C1=O [Compound 7] | 4 | – | – | 1280
6 | O=C(NCc1ccc(F)cc1F)c1cn2c(c(O)c1=O)C(=O)N1CCCOC1C21CC1 (single isomer, unassigned) [Compound 4] | – | 285 | 0.5 | –
7 | O=C(NCc1cccc(Cl)c1F)c1cn2c(c(O)c1=O)C(=O)N1CCCOC1C21CC1 (single isomer, unassigned) [Compound 6] | – | 505 | 0.6 | –
8 | O=C(NCc1cccc(Cl)c1F)c1cn2c(c(O)c1=O)C(=O)N1CCCCOC1C21CC1 (single isomer, unassigned) [Compound 12] | – | 92.3 | 0.5 | –
9 | CN(C)N1CC2(CCOCC2)n2cc(C(=O)NCc3ccc(F)cc3F)c(=O)c(O)c2C1=O [Compound 8] | 19 | – | – | 1510
10 | CN1CCCN2C(=O)c3c(O)c(=O)c(C(=O)NCc4cccc(Cl)c4F)cn3C3(CC3)C12 (single isomer, unassigned) [Compound 15] | – | 71.5 | 0.6 | –
11 | COC1N(N(C)C)C(=O)c2c(O)c(=O)c(C(=O)NCc3ccc(F)cc3F)cn2C12COC2 (stereo not drawn) [Compound 9] | 7 | – | – | 235
12 | COC1N(N(C)C)C(=O)c2c(O)c(=O)c(C(=O)NCc3ccc(F)cc3F)cn2C12CC2 (single isomer, unassigned) [Compound 2] | – | 153 | 1.7 | –
13 | CN1CCCN2C(=O)c3c(O)c(=O)c(C(=O)NCc4cccc(Cl)c4F)cn3C3(CC3)C12 (single isomer, unassigned) [Compound 14] | 1 | 2340 | – | –
14 | O=C(NCc1cccc(Cl)c1F)c1cn2c(c(O)c1=O)C(=O)N1CCCCOC1C21CC1 (single isomer, unassigned) [Compound 13] | – | 4100 | 1.3 | –
15 | O=C(NCc1cccc(Cl)c1F)c1cn2c(c(O)c1=O)C(=O)N1CCOC1C21CC1 (single isomer, unassigned) [Compound 10] | 0.4 | 3900 | – | –
